# Paper PMC9021288 (Nature Communications, 2022)
# “And” between values parts separate entries of the source, which are not always exact repeats. Identical values can stand only once.
# How the values were obtained:
# [1] = test system: P. falciparum Pf3D7^0087/N9; assay: Single dose in vivo efficacy in humanized NSG mice; design: species or system Plasmodium falciparum
# Protocol: The effect of pantothenamides on P. falciparum Pf3D7^0087/N9 [66] in vivo was assessed in female NSG mice (NODscidIL2Rγ^null) at the Swiss Tropical and Public Health Institute (Basel, Switzerland) as described previously (Supplementary Table 30)[15],[67]. Briefly, humanized mice were engrafted daily with human erythrocyte suspensions from days -11 to day 6. […] On day 4, groups of n = 2 mice were treated with a single dose pantothenamides or chloroquine (50 mg/kg) by oral gavage. […] Serial dilutions were prepared in the same solvent to concentrations 50 times higher than the corresponding CAL and QC concentrations. The concentrations were calculated under consideration of purity and salt factor. The spiking of the CAL and QC sample were performed at room temperature.
# [2] = test system: cryopreserved human primary hepatocytes; assay: in vitro; conditions: human, hepatocytes
# Text: Briefly, cryopreserved human primary hepatocytes were thawed and cultured as described above.
# [3] = Crystal screening (XRPD); assay type: physicochemical; conditions: 36 conditions
# Protocol: Crystal screening for each further characterized pantothenamide was performed by a commercial service (Crystal Pharmatech Co., Ltd.) under 36 conditions using a variety of crystallization methods, including liquid vapor diffusion, slow evaporation, slurry conversion and salt/co-crystal formation and solvents. X-ray power diffraction (XRPD) patterns were collected by Bruker X-ray powder diffractometers.
# [4] = Blood concentration and PK in infected NSG mice after single oral dose; assay type: in vivo, mouse; conditions: for concentration in blood: per mouse
# Protocol: The effect of pantothenamides on P. falciparum Pf3D7^0087/N9 [66] in vivo was assessed in female NSG mice (NODscidIL2Rγ^null) at the Swiss Tropical and Public Health Institute (Basel, Switzerland) as described previously (Supplementary Table 30)[15],[67]. Briefly, humanized mice were engrafted daily with human erythrocyte suspensions from days -11 to day 6. After 11 days (day 0), mice were injected intravenously with 3×10^7 infected RBCs in a volume of 0.1 ml. On day 4, groups of n = 2 mice were treated with a single dose pantothenamides or chloroquine (50 mg/kg) by oral gavage. The hematocrit of all dosed mice and an untreated control group (n = 4 mice) was determined by fluorescence-activated cell sorting and parasitemia was analyzed by microscopy on >10,000 RBCs as described before. Samples to quantify compound metabolites were collected and prepared at different time points (1, 2, 4, 6, and 24 h after treatment) for each mouse by mixing 20 µl of whole blood with 20 µl of Milli-Q, followed by immediate freezing of samples on dry ice. […] Serial dilutions were prepared in the same solvent to concentrations 50 times higher than the corresponding CAL and QC concentrations. The concentrations were calculated under consideration of purity and salt factor. The spiking of the CAL and QC sample were performed at room temperature. The eight calibration levels were 5.00, 10.0, 50.0, 100, 500, 1000, 3750, and 5000 ng/mL and three QC levels 15.0, 100, and 3750 ng/mL were analyzed in duplicate, together with the study samples.
# For the sample precipitation, to an aliquot of 10 µL mouse blood/water (1/1) study sample, 20 µL of acetonitrile containing the internal standard MMV1542001 at a concentration of 100 ng/mL was added. After vortex mixing, the samples were centrifuged for 10 min at 50,000 g at 8 °C. Subsequently, an aliquot of 20 µL of the supernatant was transferred to an autosampler vial and an aliquot of 5 µL was injected onto the LC-MS/MS system.
# The samples were handled by an autosampler CTC PAL (CTC Analytics AG, Zwingen, Switzerland) set at 8 °C. The chromatography column used was a YMC Hydrosphere C18, 2.1 × 33 mm, 3 µm (YMC Co. Ltd., Kyoto, Japan), kept at room temperature. The aqueous mobile phase consisted of water containing 0.1 % formic acid, whereas the organic mobile phase consisted of acetonitrile containing 0.1 % formic acid, pumped by HPLC pump from Agilent 1200 series (Agilent Technologies Inc, Santa Clara, CA, USA). The HPLC gradient was as follows: 95% phase A, 5% phase B for 0.20 min, followed by transition to 5% phase A, 95% phase B in 1 min, 2 min at these concentrations, and a subsequent increase to 95% phase A, 5% phase B in 0.05 min which is kept for the remaining 0.75 min.
# The detection of MMV693183 was performed using a TSQ Access mass spectrometer (Thermo Fisher Scientific, San Jose, CA, USA) by selected reaction monitoring. The ion source was heated electrospray ionization, using a negative polarity. Following parameters were used: Voltage 2500 [V], Vaporizer temperature 350 [°C], Sheath gas 60 [au], Auxiliary gas 5 [au], Capillary temperature 350 [°C] and Collision gas pressure 1.0 [mTorr]. […] The transition used for the internal standard was: parent ion 325.030 m/z—daughter ion 195.000 m/z.
# The concentration of the analyte was calculated using the internal standardization method. The area ratio of analyte to internal standard against the concentration of calibration samples was used for quantification. The acquisition and processing of data were performed using LCquan 2.5.6 and Xcalibur 2.0.7. Microsoft Office Excel 2007 Prof was used for calculations and statistical evaluation of data. […] The Lower Limit of Quantification was 5.00 ng/mL in […], whereas The Upper Limit of Quantification was 5000 ng/mL in mouse blood/water (1/1).
smiles,measurement,setting,value
C[C@@H](CNC(=O)[C@H](O)C(C)(C)CO)NC(=O)c1cccc(C#N)c1 (stereo in doubt) [MMV884962],Parasitemia,"[1]; day 5 post infection, 50 mg/kg p.o. on day 4, per mouse, 50 mg/kg",0.31 and 0.28
same,Parasitemia,"[1]; day 6 post infection, per mouse",0.05
same,Parasitemia,"[1]; day 7 post infection, per mouse",0
same,parasitemia outcome,"[1]; single 50 mg/kg oral gavage on day 4, over three days",reduced parasitemias below detectable levels
same,Human hepatocyte CLint,[2],0.3 µl/min/10^6 cells
same,Crystalline,[3],No
same,AUC0-24h,[4]; 50 mg/kg p.o.,8650 ng·h/mL
same,Cmax,[4]; 50 mg/kg p.o.,3920 ng/mL
same,T1/2,[4]; 50 mg/kg p.o.,3.32 h
same,Tmax,[4]; 50 mg/kg p.o.,1.00 h
same,concentration in blood,[4]; 1 h post treatment,3920 ng/mL
same,concentration in blood,[4]; 2 h post treatment,1180 ng/mL and 1170 ng/mL
same,concentration in blood,[4]; 4 h post treatment,468 ng/mL and 370 ng/mL
same,concentration in blood,[4]; 6 h post treatment,222 ng/mL and 193 ng/mL
same,concentration in blood,[4]; 24 h post treatment,13 ng/mL and 10 ng/mL
